Results reported in paper PMC10746280, “Bacterial efflux pump modulators prevent bacterial growth in macrophages and under broth conditions that mimic the host environment” (mBio, 2023).
Read-outs that look alike come from different tables or passages of the source.

Assays:
E. coli ΔtolC mutant = assay: Growth (OD600) of ΔtolC mutant in LPM 5.5; type: cell-based
Text: (§1) LPM 5.5 is chemically defined, contains low phosphate and low magnesium, and is buffered to pH 5.5 ([34], [39][–][41]). […] It was further noted that mutant strains lacking acrAB or tolC grow poorly in LPM 5.5 compared to the corresponding wild type (Fig. 5C through F).
(§2) Fig 5 In LPM pH 5.5, acrAB and tolC are required for growth, and EPM analogs inhibit growth. (A and B) Optical density at 600 nm (OD600) and CFU per milliliter of S. Typhimurium in LPM 5.5 (at pH 5.5) or LPM 7 (at pH 7.0) in the presence of CU032. (C through F) OD600 in LPM 5.5 of (C and E) S. Typhimurium ΔacrAB mutant and wild-type strains, and (D and F) E. coli ΔtolC mutant and wild-type strains with (C, D) CU032 or (E and F) EPM35. Mean and SEM of three biological replicates are shown for A–F. The wild-type and mutant strain controls are the same for C and E and for D and F.

[1] = tested on: S. enterica (SL1344 and SA10801); assay: Growth/checkerboard in cation-adjusted Mueller Hinton Broth; type: cell-based; conditions: MHB
Procedure: as §1
Overnight cation-adjusted MHB-grown cultures of SL1344 or SA10801 were diluted in MHB or LPM 5.5 to an optical density at 600 nm (OD600) of 0.01 and distributed into polystyrene 96-well flat-bottom plates. EPM analogs were added at concentrations up to 300 µM, near the limit of solubility. The antibiotics ciprofloxacin, doxycycline, and erythromycin were added up to concentrations of 2 µM, 2 µM, and 8 µM, respectively. The final DMSO concentration was at or below 2% in all wells. Plates were grown at 37°C with shaking for 18 h and OD600 was monitored (BioTek Synergy H1, BioTek Eon). Each experiment was performed with biological triplicate or higher as indicated. Percent growth was determined by normalizing to OD600 reads in wells containing no D66 or antibiotic. Checkerboards in LPM 5.5 medium were performed with culture grown overnight in LB and diluted to an OD600 of 0.01 in LPM 5.5 and compounds/antibiotics were added as previously described. MuSyC analysis was pursued as previously described ([44], [45]). […]

[2] = tested on: S. Typhimurium ΔacrAB mutant; assay: Growth (OD600) of ΔacrAB mutant in LPM 5.5; type: cell-based
Text: as §1, §2

E. coli AcrB [3] = target: T1, E. coli AcrB (Escherichia coli, UniProt P31224); assay: Isothermal titration calorimetry (ITC) binding to purified AcrB
T1 construct: 4xHis (C); made in house; host or cells: E. coli BL21-Gold (DE3), plasmid derived from pSPORT1
Text: We selected three compounds for further study, CU032, CU232, and CU244, because they incorporated different aspects of the parent structure, specifically the negative atoms on the benzene ring and the amine on opposite side of the molecule. To determine whether the EPMs could bind AcrB, we used purified E. coli AcrB, which is 95% identical to S. enterica Typhimurium AcrB. […] Here, we show with ITC that, like EPM35, the three analogs are capable of specifically interacting with AcrB to form complexes (Fig. S1; Table 1). Curiously, the analogs have KDs that are 25- to 50-fold larger than that of EPM35. […] Thus, the EPM analogs interact specifically with AcrB in a manner consistent with established EPM substrates.
AcrB protein was purified as described ([25]). Briefly, the AcrB protein contains a 4×His tag at the C-terminus and was overproduced in E. coli BL21-Gold (DE3) cells (Stratagene) using the plasmid derived from pSPORT1 (Invitrogen) ([79]). Cells were grown in 6 L of LB medium with 100 µg/mL ampicillin and disrupted with a French pressure cell. The membrane fraction was collected and washed twice with buffer containing 20 mM sodium phosphate (pH 7.2), 2 M KCl, 10% glycerol, 1 mM EDTA, and 1 mM phenylmethanesulfonyl fluoride (PMSF), and once with 20 mM HEPES–NaOH buffer (pH 7.5) containing 1 mM PMSF. The membrane proteins were then solubilized in 1% (wt/vol) n-dodecyl β-D-maltoside (DDM). Insoluble material was removed by ultracentrifugation at 370,000 × g. The extracted protein was purified with Cu^2+-affinity and G-200 sizing columns ([13], [80]). The purified AcrB protein was then concentrated to a final monomeric concentration of 10 µM in buffer containing 20 mM Na-HEPES (pH 7.5) and 0.05% DDM. Similar protein purification procedures were extensively used to elucidate structure-function of RND transporters, including AcrB ([13], [16], [25]), CusA ([81], [82]), MtrD ([83], [84]), CmeB ([85]), AdeB ([86]), HpnN ([87]), and MmpL3 ([88]).
Briefly, measurements were performed on a Microcal iTC200 (Malvern Panalytical) at 25°C. Before titration, the protein was dialyzed against buffer containing 20 mM Na-HEPES (pH 7.5), 0.05% […] (DDM), and 5% DMSO ([18]). The Bradford assay was used to quantify protein concentration, which was adjusted to a final monomeric concentration of 10 µM. Ligand solution consisting of 100 µM EPM in the aforementioned buffer was prepared as the titrant. Both the protein and ligand samples were degassed before loading the samples. Two-microliter injections of the ligand were used for data collection. Injections occurred at intervals of 60 s and lasted for 4 s. Heat transfer (µcal/s) was measured as a function of elapsed time (s). The mean enthalpies measured from injection of the ligand in the buffer were subtracted from raw titration data before data analysis with ORIGIN software (MicroCal). Titration curves fitted with a non-linear regression fitting to the binding isotherm provided the equilibrium binding constant (KA = 1/KD) and enthalpy of binding (ΔH). Based on the values of KA, the change in free energy (ΔG) and entropy (ΔS) were calculated with the equation ΔG = −RT lnKA = ΔH − TΔS, where T is […] and R is 1.9872 cal/K per mol. Calorimetry trials were also carried out in the absence of AcrB using the same experimental conditions.

E. coli AcrB [4] = target: T1, E. coli AcrB; design: method as in PMID 29879224; conditions: ITC; previously reported; cited from earlier work

T1 sequence (P31224 whole entry): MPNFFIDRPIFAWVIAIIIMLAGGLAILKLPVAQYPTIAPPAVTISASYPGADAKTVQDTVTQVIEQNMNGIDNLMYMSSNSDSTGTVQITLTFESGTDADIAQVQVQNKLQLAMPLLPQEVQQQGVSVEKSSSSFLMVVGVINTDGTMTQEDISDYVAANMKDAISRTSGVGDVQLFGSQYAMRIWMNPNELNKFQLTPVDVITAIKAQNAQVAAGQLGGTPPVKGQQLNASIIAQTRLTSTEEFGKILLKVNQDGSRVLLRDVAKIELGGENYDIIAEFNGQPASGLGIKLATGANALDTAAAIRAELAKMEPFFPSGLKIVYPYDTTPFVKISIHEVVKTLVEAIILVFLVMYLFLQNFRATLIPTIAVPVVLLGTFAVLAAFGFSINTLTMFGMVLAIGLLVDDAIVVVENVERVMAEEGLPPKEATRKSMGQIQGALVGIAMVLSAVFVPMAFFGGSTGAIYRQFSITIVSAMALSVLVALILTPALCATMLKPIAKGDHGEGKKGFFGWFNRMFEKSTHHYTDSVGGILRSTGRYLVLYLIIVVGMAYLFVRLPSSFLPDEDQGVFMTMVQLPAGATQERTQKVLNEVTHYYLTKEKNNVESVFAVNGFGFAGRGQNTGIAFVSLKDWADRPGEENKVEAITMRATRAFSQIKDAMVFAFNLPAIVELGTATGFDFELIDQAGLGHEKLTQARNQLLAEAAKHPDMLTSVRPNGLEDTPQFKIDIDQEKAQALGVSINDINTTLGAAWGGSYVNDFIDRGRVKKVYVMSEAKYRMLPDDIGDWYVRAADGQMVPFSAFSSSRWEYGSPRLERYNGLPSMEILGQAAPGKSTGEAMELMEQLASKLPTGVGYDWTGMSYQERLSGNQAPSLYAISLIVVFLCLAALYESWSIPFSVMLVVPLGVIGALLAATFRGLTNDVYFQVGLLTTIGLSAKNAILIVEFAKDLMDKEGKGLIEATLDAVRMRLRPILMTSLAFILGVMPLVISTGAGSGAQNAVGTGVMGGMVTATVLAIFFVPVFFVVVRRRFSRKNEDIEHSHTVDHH

In the case of `NC1CCN(CC(O)COc2ccc(Cl)c(Cl)c2)C1` (centres unmarked) [CU032], the “growth inhibition of ΔtolC mutant compared to DMSO” value (E. coli ΔtolC mutant) is reported as “does not strongly inhibit growth”, the “growth inhibition of wild-type bacteria in Mueller Hinton Broth” value [1] is reported as “did not inhibit the growth” and the “growth inhibition of ΔacrAB mutant compared to DMSO” value [2] is reported as “does not strongly inhibit growth”. The “∆H” value (E. coli AcrB [3]) was −1,947 ± 490 cal/mol and the “∆S” value (E. coli AcrB [3]) was 15.60 cal/(mol deg).

For `NC1CCN(CC(O)COc2cccc(C(F)(F)F)c2)CC1` (centres unmarked) [CU232], the “∆H” value (E. coli AcrB [3]) was −2,124 ± 93 cal/mol and the “∆S” value (E. coli AcrB [3]) was 16.30 cal/(mol deg).

With `OC(CN[C@H]1[C@@H]2CNC[C@@H]21)COc1cc(Cl)cc(Cl)c1` (some centres unmarked) [CU244] the “∆H” value (E. coli AcrB [3]) was −8,654 ± 1,384 cal/mol and the “∆S” value (E. coli AcrB [3]) was −6.91 cal/(mol deg).

In the case of `OC(COc1ccc(Cl)c(Cl)c1)CN1CCC(Nc2nccc(C(F)(F)F)n2)CC1` (centres unmarked) [EPM35], the “growth inhibition of ΔtolC mutant compared to DMSO” value (E. coli ΔtolC mutant) is listed as “does not strongly inhibit growth”, the “growth inhibition of ΔacrAB mutant compared to DMSO” value [2] is listed as “does not strongly inhibit growth” and the KD (E. coli AcrB [4]) is listed as “sub-micromolar range”. The “∆H” value (E. coli AcrB [4]) was −7,663 ± 84 cal/mol and the “∆S” value (E. coli AcrB [4]) was 4.2 cal/(mol deg).
